The results in this text go back to PubChem BioAssay AID449750 (Broad Institute, 2010).

Active and inactive are the calls of the source. The rule behind the calls is not given here.

The experiment can be described thus: non-covalent RecA intein splicing inhibitors, dose response, biochemical, cell-free, fluorescence, secondary screen (AID 449750).
Regarding `COC(=O)COc1ccc(C(c2c(C)[nH][nH]c2=O)c2c(C)[nH][nH]c2=O)cc1`, the AC50 is 13 µM. The same measure for `O=C1C=C(N2CCCCC2)c2ccccc2C1=O`: 10.4 µM. For the compound `CC(C)Cc1ccc(-c2cc(=O)[nH][nH]2)cc1`, the AC50 is 13.1 µM. The result for `Cn1c(SCC(=O)NCC2CCCO2)ncc(C(=O)Nc2ccc(F)cc2)c1=O` (configuration not stated) reads 7.58 µM; that for `NC(=O)C1CCN(C2=C(Cl)C(=O)c3ccccc3C2=O)CC1`, 1.97 µM.

In the case of `O=C1C(Cl)=C(N2CCOCC2)C(=O)N1c1ccccc1Cl`, the AC50 is > 38 µM (inactive). On to `O=C1C=C(N2CCOCC2)c2ccccc2C1=O`, for which the AC50 is 4.51 µM. The result for `Cc1nn(-c2ccccc2)c(Cl)c1CN(C(=O)CCl)c1cccc2ccccc12` reads 0.933 µM.

With `COc1cccc(-c2[nH]nc3c2C(c2ccsc2)C(C#N)=C(N)O3)c1` (configuration not stated), the AC50 is 5.11 µM. The same measure for `CC(=O)N(C)C1=C(N2CCOCC2)C(=O)c2ccccc2C1=O`: 15.7 µM. The same measure for `N#CC1=C(N)Oc2n[nH]c(-c3ccc(F)cc3)c2C1c1cccc(OC(=O)N2CCOCC2)c1` (configuration not stated): 26.2 µM; for `Cc1[nH][nH]c(=O)c1C(c1cc(Br)ccc1O)c1c(C)[nH][nH]c1=O`: 8.35 µM. The same measure for `CC1=Nc2cccc3cccc(c23)N1C`: > 38 µM (inactive); for `Cc1ccc2c(c1)Oc1ccc(NC(=O)CCl)cc1C(=O)N2`: 6.94 µM. For the compound `CCCCOc1ccc(C(=O)C(CN2CCOCC2)c2ccccc2)cc1` (configuration not stated), the AC50 is 7.35 µM.

In the case of `O=c1cc(C23CC4CC(CC(C4)C2)C3)[nH][nH]1`, the AC50 is > 38 µM (inactive). The result for `COc1ccc(-c2cc(C(F)(F)F)nc(S(=O)(=O)CCCC(=O)Nc3cccc(O)c3)n2)cc1OC` reads > 38 µM (inactive). The same measure for `COC(=O)C1CN(C#N)N(c2ccc(Cl)cc2)C12c1ccccc1-c1ccccc12` (configuration not stated): 10.7 µM; for `CC1=NN(c2ccccc2)C(=O)/C1=C\c1ccc(Oc2ccc([N+](=O)[O-])cc2[N+](=O)[O-])cc1`: 3.48 µM; for `COc1ccc(OC)c(N2C(=O)C(Cl)=C(N3CCCCC3)C2=O)c1`: > 38 µM (inactive).

Consider `CCCn1nc([N+](=O)[O-])c(C(C#N)c2nc3ccccc3s2)c(Cl)c1=O` (configuration not stated), for which the AC50 is 23.4 µM. On to `NS(=O)(=O)c1ccc(N=Cc2c(O)c3ccccc3oc2=O)cc1`, for which the AC50 was > 38 µM (inactive). The result for `CN1c2ccc(C=O)c3c(C=O)ccc(c23)N(C)C1(C)C` reads > 38 µM (inactive). The same measure for `CCOC(=O)c1c(C)sc2c1N(C(=O)CCl)c1cc(Cl)ccc1S2`: 3.37 µM. The same measure for `O=C(CNC(=O)C1COc2ccccc2O1)N/N=C\c1ccccc1Cl` (configuration not stated): > 38 µM (inactive); for `Cc1ccc(-c2cc(-c3ccc(C)cc3)[n+](-c3ccc(C(=O)[O-])cc3)c(-c3ccc(C)cc3)c2)cc1`: 37.5 µM. Regarding `C=CS(=O)c1sc(Cl)c(N2CCOCC2)c1[N+](=O)[O-]` (configuration not stated), the AC50 was > 38 µM (inactive). `CCOC(=O)C1=C(O)c2ccccc2C(=O)/C1=C\c1ccc(CC)cc1`: the AC50 is 7.05 µM. The same measure for `CCOc1cc(C(c2c(C)[nH][nH]c2=O)c2c(C)[nH][nH]c2=O)ccc1OS(=O)(=O)c1ccc(C)cc1`: 4.78 µM; for `COc1ccc(/C=C2/C(=O)N(c3ccccc3)N=C2C)cc1OC`: 5.49 µM; for `Fc1ccc(Nc2nc(NCc3ccco3)c3ccccc3n2)cc1`: 7.39 µM. The result for `CCC(=O)Oc1ccc(C(=O)Nc2cccc(C(=O)c3ccccc3)c2)cc1` reads 32.8 µM.

Turning to `O=C(Nc1ccccc1)NN(C(=O)CCl)c1ccccc1`, the AC50 is 6.12 µM. The same measure for `CN(CCc1cnn(C)c1)C(=O)C1CCC(=O)N(CC2CCCCC2)C1` (configuration not stated): > 38 µM (inactive); for `CC1=NN(c2ccccc2)C(=O)/C1=C/c1c(O)n(-c2ccc(F)c(Cl)c2)[nH]c1=O`: 10.3 µM; for `COc1ccc(/C=C/C(=O)c2ccccc2)cc1COc1ccc(F)cc1`: 2.18 µM. The same measure for `Cc1nn(-c2ccccc2)c(Cl)c1CN(C(=O)CCl)c1ccc(Cl)cc1`: 1.28 µM; for `N#Cc1cc(-c2ccccc2)nc(Oc2ccccc2)n1`: > 38 µM (inactive); for `CCCCCC(=O)Cc1cc(O)cc2c1C(=O)Oc1cc(O)c(C(=O)O)c(CCCCC)c1O2`: 6.09 µM. The result for `CNC(=O)/C(C#N)=C/c1c(N(Cc2ccccc2)Cc2ccccc2)nc2c(C)cccn2c1=O` reads 13 µM; that for `S=C(Nc1ccc2nsnc2c1)N1CCCCCC1`, 9.37 µM; that for `Cc1ccc(C(=O)N/N=C\c2cc(Br)c(Br)o2)cn1`, 15.7 µM.

For the compound `COc1cccc(NC(=O)CSc2c3c(nc4ccccc24)CCCC3)c1`, the concentration at half-maximal activity (AC50) is 39.5 µM. Regarding `O=C(O)CN1C(=O)/C(=C\c2cccc(OC(=O)c3ccco3)c2)SC1=S`, the AC50 was > 38 µM (inactive). The result for `Cc1ccc(S(=O)(=O)Nc2ccc(O)c3ccccc23)c(C)c1` reads 0.409 µM; that for `COc1ccc(/C=N/NC(=O)c2nn(-c3ccccc3)c(=O)c3c(N)scc23)cc1`, > 38 µM (inactive). The result for `O=C(O)CC1S/C(=N/N=C/c2ccc(-c3ccccc3[N+](=O)[O-])o2)NC1=O` (configuration not stated) reads 9.4 µM. Turning to `CCOC(=O)c1nnc(-c2ccccc2)nc1Sc1c(Cl)cccc1Cl`, the AC50 is > 38 µM (inactive). Consider `Cc1cc(C(=O)c2ccc(Cl)cc2)c(NC(=O)CCl)s1`, for which the half-maximal activity concentration (AC50) is 1.19 µM. As to `CC(=O)N1C(=O)C2(C(C#N)=C(N)Oc3c2c(C)nn3-c2ccccc2)c2ccccc21` (configuration not stated), the AC50 is 28 µM. The result for `O=C(O)/C=C/C(=O)Nc1ccc(SC(F)(F)C(F)(F)C(F)(F)F)cc1` reads 7.99 µM; that for `Cc1ccc(OC(=O)c2ccc([N+](=O)[O-])cc2Cl)cn1`, > 38 µM (inactive); that for `COc1ccc(N2C(=O)C(Cl)=C(Oc3cccc(OC)c3)C2=O)cc1`, > 38 µM (inactive). `O=C(CNC1=NCCC1)c1ccc(Cl)cc1`: the AC50 is > 38 µM (inactive).

On to `CCO/C=C1/C(=O)N(C)C(=O)c2cc(OC)ccc21`, for which the AC50 is > 38 µM (inactive). Regarding `O=S(=O)(c1ccccc1)c1ncc(C(F)(F)F)cc1Cl`, the AC50 is > 38 µM (inactive). The same measure for `COc1ccc(N/C=C2\CCc3ccccc3C2=O)cc1`: > 38 µM (inactive); for `C=CCn1c(N)c(C(=O)Nc2cccc(C)c2)c2nc3ccccc3nc21`: 14.4 µM. On to `COC(CN(C(=O)CCl)C(C(=O)NC1CCCCC1)c1ccc(Cl)cc1)OC` (configuration not stated), for which the AC50 is 7.61 µM. The result for `Cc1ccc(N2C(=O)C(Cl)=C(N3CCOCC3)C2=O)c(C)c1` reads > 38 µM (inactive); that for `CC(=O)NCCn1c(SCC(=O)NCc2ccco2)nc2ccccc2c1=O`, > 38 µM (inactive); that for `CCc1ccc2c(c1)C(NC(C)=O)C(=O)N2CCN1CCOCC1` (configuration not stated), 37 µM. The same measure for `CC(/C=C1\SC(=S)N(NC(=O)c2cccc(O)c2)C1=O)=C\c1ccccc1`: 20.9 µM; for `c1ccc(-c2nnc(-c3ccccn3)nc2NC2CCCCC2)cc1`: 7.98 µM. The same measure for `C/C(CC(=O)Nc1ccccc1[N+](=O)[O-])=N\NC(=O)COc1ccccc1C`: > 38 µM (inactive); for `O=[N+]([O-])c1ccc(Sc2nnnn2-c2ccccc2)nc1`: > 38 µM (inactive); for `CCCCCCCCOC(=O)c1c(CSC(=N)N)n(C)c2cc(Br)c(OC(C)=O)cc12`: 14.5 µM. Take `COc1ccc(-c2c(=O)n(OC)c3ccccc3[n+]2[O-])cc1OC`: the AC50 was > 38 µM (inactive). The same measure for `CC1=NN(c2ccccc2)C(=O)/C1=C/c1cccs1`: 9.94 µM; for `O=C(CCCN1C(=O)/C(=C\c2cccs2)SC1=S)Nc1ccc(O)cc1`: > 38 µM (inactive); for `CN1C(=O)/C(=N\OC(=O)c2cccc3ccccc23)c2ccccc21`: > 38 µM (inactive).

`CS(=O)(=O)C1=NN2C(=N)/C(=C\c3ccc(OC(=O)c4ccco4)cc3)C(=O)N=C2S1`: the AC50 is > 38 µM (inactive).

On to `Cc1[nH]nc2c1C1(CCC3(CC1)OCCO3)C(C#N)=C(N)O2`, for which the AC50 is > 38 µM (inactive).

Regarding `Cc1[nH]n(-c2ccccc2)c(=O)c1/C=C1\C=NN=C1c1ccccc1`, the AC50 was 17 µM.

As for `COc1cc(C(c2c(C)[nH][nH]c2=O)c2c(C)[nH][nH]c2=O)cc(OC)c1OC`, the AC50 is 11.8 µM. Take `COC(=O)c1ccc(NC2=C(Cl)C(=O)OC2OC(=O)c2ccccc2)cc1` (configuration not stated): the AC50 was > 38 µM (inactive). The result for `O=C(Oc1ccc(C(=S)N2CCOCC2)cc1)c1ccc([N+](=O)[O-])cc1[N+](=O)[O-]` reads > 38 µM (inactive); that for `Cc1ccc(S(=O)(=O)Nc2c(O)ccc3ccccc23)cc1`, 8.05 µM; that for `CC[n+]1ccc2cc(OC)c(OC)cc2c1Cc1ccc(OC)c(OC)c1`, > 38 µM (inactive). The result for `COc1ccc(-n2c(C)cc(C(=O)CCl)c2C)cc1` reads 13.6 µM; that for `O=C(Oc1ccc(N2C(=O)CCC2=O)cc1)c1ccco1`, 0.433 µM; that for `O=c1c2ccccc2nc2n1CCS2(=O)=O`, > 38 µM (inactive). The same measure for `O=C1c2ccccc2C(=O)c2c1ncn2-c1ccccc1`: > 38 µM (inactive); for `CCN(CC)C(=O)CSc1nnc2nnc3cc(Cl)ccc3n12`: > 38 µM (inactive); for `Cc1[nH]n(-c2ccccc2)c(=O)c1C(c1ccc(O)c([N+](=O)[O-])c1)c1c(C)[nH]n(-c2ccccc2)c1=O`: 2.77 µM. On to `COc1cccc(C(c2c(C)[nH]n(-c3ccccc3)c2=O)c2c(C)[nH]n(-c3ccccc3)c2=O)c1O`, for which the half-maximal activity concentration (AC50) is 2.35 µM. Turning to `COc1cc(C(=O)NCC(=O)N/N=C/c2cccc(OC(=O)c3ccco3)c2)cc(OC)c1OC`, the AC50 is > 38 µM (inactive). Take `Cc1ccc(C)c(Sc2ccc(NC(=O)CCl)cc2)c1`: the half-maximal activity concentration (AC50) is 1.27 µM. Turning to `O=C(N/N=C/c1ccc([N+](=O)[O-])o1)c1ccc(O)cc1`, the AC50 was > 38 µM (inactive).

As to `CCCC(=O)OCCNc1cc(Sc2nccn2C)c2nonc2c1[N+](=O)[O-]`, the AC50 is > 38 µM (inactive).

`Cc1[nH]nc2c1C(c1ccco1)C(C#N)=C(N)O2` (configuration not stated): the AC50 was > 38 µM (inactive). The result for `CCCCCc1c2c(cc(O)c1C(=O)O)OC(=O)c1c(cc(OC)cc1C(=O)CCCC)O2` reads 8.72 µM.
